Source: patent US9636380B2 (priority 2013, dated 2017)

Legend:
[1] = tested on: AMPA receptor; test: Whole-cell recording of light-evoked EPSCs (LDT inputs) in DA neurons projecting to NAc lateral shell, midbrain slices; format: cell-based, mice; conditions: 10 μM bath perfusion; stimulation of LDT fibers; −70 mV
Method: (§1) Mice were deeply anaesthetized with pentobarbital (200 mg/kg ip; Ovation Pharmaceuticals, Deerfield, Ill.). Coronal midbrain slices (250 μm) were prepared after intracardial perfusion with ice-cold artificial cerebrospinal fluid (ACSF) containing elevated sucrose (in mM): 50 sucrose, 125 NaCl, 25 NaHCO3, 2.5 KCl, 1.25 NaH2PO4, 0.1 CaCl2, 4.9 MgCl2, and 2.5 glucose (oxygenated with 95% O2/5% CO2). After 90 min of recovery, slices were transferred to a recording chamber and perfused continuously at 2-4 ml/min with oxygenated ACSF (125 NaCl, 25 NaHCO3, 2.5 KCl, 1.25 NaH2PO4, 11 glucose, 1.3 MgCl2, and 2.5 CaCl2) at ˜30° C. […]
(§2) Labeled DA neurons were visualized with a 40× water-immersion objective on an upright fluorescent microscope (BX51WI, Olympus USA) equipped with infrared-differential interference contrast (IR-DIC) video microscopy and epifluorescence (Olympus USA) for detection of retrobeads. […] A dual lamp house adapter (Olympus USA) was used to switch between fluorescence lamp and LED light source. Excitatory postsynaptic currents (EPSCs) were recorded in whole-cell voltage clamp (Multiclamp 700B, Molecular Devices, CA, USA), filtered at 2 KHz, digitized at 10 KHz (ITC-18 interface, HEKA) and collected on-line using custom Igor Pro software (Wavemetrics, Lake Oswego, Oreg., USA). […]

[2] = tested on: GABAA receptors; test: Whole-cell recording of light-evoked IPSCs (LHb inputs) in DA cells projecting to NAc lateral shell, midbrain slices; format: cell-based, mice; conditions: 50 μM bath perfusion; LHb input stimulation; n=3; p<0.0001
Method: as §1, §2

Molecule	Effect on light-evoked EPSCs in DA neurons projecting to NAc lateral shell [1]	Effect on light-evoked IPSCs in DA cells projecting to NAc lateral shell [2]
N#Cc1cc2[nH]c(=O)c(=O)[nH]c2cc1[N+](=O)[O-] [CNQX]	blocked	–
picrotoxin	–	blocked
